This note sets out measurements from patent US10566550B2, “Formulation containing an organic semiconductor and a metal complex” (Merck Patent GmbH, priority 2015, dated 2020).

≈ marks a conversion by molar mass, not a printed value.

A short description of the series: Solubility of the materials in various solvents at 20° C. The format is physicochemical. The conditions noted are these: organic solvent or mixture, thermodynamic from solid. The protocol: For the purposes of this application, the solubility of a material in a solvent is taken to mean the highest material-to-solvent ratio in which the solution at room temperature (at about 20° C.), is clear and stays clear for at least several hours, preferably for at least 5 hours.
The solubility of a material in a solvent is the highest material-to-solvent ratio in which the solution at 20° C. is clear and stays clear for several hours.
The solubility (g/l) is determined according to the following method:
(1) A known amount of the solvent (for example 100 mL) is put in a container
(2) A defined amount of the material is added and the mixture is stirred with a magnetic stirring bar;

Setting [1] is: LM8 Toluene:Hexafluorobenzene (7:3).

For orientation: solubility means the concentration that dissolves in the medium under given conditions. For `O=C([O][Bi]([O]C(=O)c1ccc(F)c(F)c1F)[O]C(=O)c1ccc(F)c(F)c1F)c1ccc(F)c(F)c1F` [M1], the solubility (LM1 Anisole:Xylene (2:1)) was less than 7.5 mg/mL; the solubility (LM2 Anisole) was less than 7.5 mg/mL; the solubility (LM3 Xylene) was less than 7.5 mg/mL; the solubility (LM4 Chlorobenzene) is less than 7.5 mg/mL; the solubility (LM5 THF) is greater than 100 mg/mL; the solubility (LM6 Toluene:THF (9:1)) was greater than 30 mg/mL. The solubility (LM7 Hexafluorobenzene) was in the range of 15 to 20 mg/mL; the solubility under setting [1] is 15 mg/mL; the solubility (LM9 Meta-difluorobenzene) is less than 7.5 mg/mL; the solubility (LM10 Fluorobenzene) was less than 7.5 mg/mL; the solubility (LM11 Acetonitrile) was less than 10 mg/mL; the solubility (LM12 Benzonitrile) was greater than 20 mg/mL. The solubility (LM13 Acetone) was greater than 20 mg/mL; the solubility (LM14 DMF) was greater than 40 mg/mL; the solubility (LM15 Toluene:DMF (8:2)) amounted to 15 mg/mL; the solubility (LM16 DMSO) was greater than 20 mg/mL; the solubility (LM17 Methanol) was greater than 20 mg/mL; the solubility (LM18 Toluene:Methanol (8:2)) is 20 mg/mL. Further, the solubility was greater than 20 mg/mL (LM19 EGDME) and less than 7.5 mg/mL (LM20 Toluene).
Turning to `CC1(C)c2ccccc2-c2ccc(N(c3ccc4c(c3)C3(c5ccccc5-c5ccccc53)c3ccccc3-4)c3ccccc3-c3ccccc3)cc21` [OS6], the solubility is, setting by setting: (LM1 Anisole:Xylene (2:1)) greater than 50 mg/mL; (LM2 Anisole) 100 mg/mL (≈ 148 mM); (LM3 Xylene) 40 mg/mL (≈ 59.2 mM); (LM5 THF) greater than 40 mg/mL; (LM6 Toluene:THF (9:1)) greater than 50 mg/mL; under setting [1], 30 mg/mL (≈ 44.4 mM). Further, the solubility was 10 mg/mL (≈ 14.8 mM) (LM14 DMF); 25 mg/mL (≈ 37 mM) (LM15 Toluene:DMF (8:2)); 10 mg/mL (≈ 14.8 mM) (LM16 DMSO); 30 mg/mL (≈ 44.4 mM) (LM18 Toluene:Methanol (8:2)); 60 mg/mL (≈ 88.8 mM) (LM20 Toluene).
